Measurements: paper PMC10587169, “Tuning aminopolycarboxylate chelators for efficient complexation of trivalent actinides” (Scientific Reports, 2023)
Where two headings read alike, the source gives them in different places.

Columns and labels:
[1] = cited from earlier work
[2] = Spectrophotometric titration; assay type: binding; settings: spectrophotometrically measured, I = 2.0 M (Na+/H+)ClO4, T = 25 ± 1 °C, ±3σ
Description: Changes in the optical absorption characteristics of Nd^3+ were monitored using a Cary 6000i UV/Vis–NIR Spectrometer (Agilent) using 1 cm semimicro quartz cuvettes (Starna) in double-beam mode, where the ^4I9/2 → ^4G5/2, ^2G7/2 transitions[34] were monitored between 560 and 605 nm with a 0.075 nm interval and 1.0 nm spectral bandwidth. Changes in the optical absorption characteristics of ^243Am^3+ and ^248Cm^3+ were monitored using a Flame-S-VIS–NIR-ES spectrometer coupled to a DH-2000-BAL dual-mode light source (Ocean Optics) with a single 1 cm semimicro quartz cuvette (Starna). […] The complexation of Am^3+ with the ligands was monitored in the 495–525 nm spectral region, looking at the ^7F0′ → ^5L6′ transition[23],[35]. For Cm^3+, ligand complexation was monitored in the 365–410 nm spectral region, looking at the ^8S7/2 → ^2Ji (i = {15}, {13,9}, {11,17}) manifold transitions[24],[25],[36]. Changes in aqueous p[H^+] were monitored throughout each titration step using a Gran-calibrated Orion Ross Semi-micro glass electrode. […] Finally, the spectroscopic data was analyzed using the HypSpec software package[33],[37]. […]
To further validate the competitive solvent extraction methodology the complexation of Am^3+ with H4octapa and Cm^3+ with H4pypa-peg was studied spectrophotometrically. […] The presence of both ligands induced new red-shifted absorption signatures in each monitored titration. […]

| SMILES | pKa H2L2- ([1]; I = 0.15 M NaCl at 25 °C) | pKa H3L- ([1]; I = 0.15 M NaCl at 25 °C) | pKa H4L(aq) ([1]; I = 0.15 M NaCl at 25 °C) | pKa H5L+ ([1]; I = 0.15 M NaCl at 25 °C) | pKa HL3- ([1]; I = 0.15 M NaCl at 25 °C) | pKa H2L2- ([1]; I = 0.16 M NaCl at 25 °C) | pKa H3L- ([1]; I = 0.16 M NaCl at 25 °C) | pKa H4L(aq) ([1]; I = 0.16 M NaCl at 25 °C) | pKa H5L+ ([1]; I = 0.16 M NaCl at 25 °C) | pKa H6L2+ ([1]; I = 0.16 M NaCl at 25 °C) | pKa H7L3+ ([1]; I = 0.16 M NaCl at 25 °C) | pKa HL3- ([1]; I = 0.16 M NaCl at 25 °C) | logβ101 (ML), Cm3+ [2] |
| --- | --- | --- | --- | --- | --- | --- | --- | --- | --- | --- | --- | --- | --- |
| O=C(O)CN(CCN(CC(=O)O)Cc1cccc(C(=O)O)n1)Cc1cccc(C(=O)O)n1 [H4octapa, 6,6′-((ethane-1,2-diylbis–((carboxymethyl)azanediyl))bis–(methylene))dipicolinic acid] | 5.40 (1) | 3.65 (1) | 2.97 (1) | 1.66 (1) | 8.52 (1) | 5.43 (2) | 3.75 (1) | 3.08 (1) | 2.21 (2) | 1.61 (2) | 0.12 (4) | 8.58 (1) |  |
| O=C(O)CN(Cc1cc(-c2cn(CCOCCOCCO)nn2)cc(CN(CC(=O)O)Cc2cccc(C(=O)O)n2)n1)Cc1cccc(C(=O)O)n1 [H4pypa-peg, 6,6'-((((4-(1-(2-(2-(2-hydroxyethoxy)ethoxy)ethyl)-1H-1,2,3-triazol-4-yl)pyridine-2,6-diyl)bis–(methylene))bis–((carboxymethyl)azanediyl))bis–(methylene)) dipicolinic acid] |  |  |  |  |  |  |  |  |  |  |  |  | 20.37 (2) |
